# Test results: ChEMBL document CHEMBL1909046, “DrugMatrix in vitro pharmacology data”
# Key:
# Acetylcholinesterase = Acetylcholinesterase (Homo sapiens, UniProt P22303); assay: DRUGMATRIX: Acetylcholinesterase enzyme inhibition (substrate: acetylthiocholine); assay type: cell-based, HEK293; settings: Not Active = under 50% inhibition at 10 µM
# [1] = DRUGMATRIX: ATPase, Na+/K+ enzyme inhibition (substrate: ATP); assay type: tissue-based, Sus scrofa, Heart; settings: Not Active = under 50% inhibition at 10 µM
# Melanocortin receptor 5 = Melanocortin receptor 5 (Homo sapiens, UniProt P33032); assay type: cell membranes, HEK293, Membrane; settings: hek293; further: in other assays of this panel Not Active means under 50% inhibition at 10 µM
# [2] = DRUGMATRIX: Serotonin (5-Hydroxytryptamine) 5-HT3 radioligand binding (ligand: [3H] GR-65630); assay type: cell membranes, Membrane; settings: hek293, Not Active = under 50% inhibition at 10 µM
# [3] = DRUGMATRIX: Tumor Necrosis Factor (TNF), Non-Selective radioligand binding (ligand: [125I] TNF-alpha); assay type: cell membranes, Membrane; settings: u-937; Not Active = under 50% inhibition at 10 µM
# [4] = target: Mitogen-activated protein kinase 1 (Homo sapiens, UniProt P28482); assay: DRUGMATRIX: Protein Serine/Threonine Kinase, ERK2 enzyme inhibition (substrate: Myelin Basic Protein); parameters: species or system Escherichia coli; settings: Not Active = under 50% inhibition at 10 µM
# Sequence of Mitogen-activated protein kinase 1 (P28482 whole entry): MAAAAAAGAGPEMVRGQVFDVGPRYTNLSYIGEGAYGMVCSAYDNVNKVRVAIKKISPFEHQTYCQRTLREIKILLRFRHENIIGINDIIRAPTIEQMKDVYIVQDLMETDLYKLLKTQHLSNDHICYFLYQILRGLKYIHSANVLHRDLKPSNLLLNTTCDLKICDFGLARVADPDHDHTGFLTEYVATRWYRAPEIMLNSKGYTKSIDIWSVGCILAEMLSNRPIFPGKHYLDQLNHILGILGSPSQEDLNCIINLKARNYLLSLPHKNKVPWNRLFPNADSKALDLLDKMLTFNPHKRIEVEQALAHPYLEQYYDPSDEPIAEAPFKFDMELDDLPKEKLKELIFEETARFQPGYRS
# Sequence of Acetylcholinesterase (P22303 whole entry): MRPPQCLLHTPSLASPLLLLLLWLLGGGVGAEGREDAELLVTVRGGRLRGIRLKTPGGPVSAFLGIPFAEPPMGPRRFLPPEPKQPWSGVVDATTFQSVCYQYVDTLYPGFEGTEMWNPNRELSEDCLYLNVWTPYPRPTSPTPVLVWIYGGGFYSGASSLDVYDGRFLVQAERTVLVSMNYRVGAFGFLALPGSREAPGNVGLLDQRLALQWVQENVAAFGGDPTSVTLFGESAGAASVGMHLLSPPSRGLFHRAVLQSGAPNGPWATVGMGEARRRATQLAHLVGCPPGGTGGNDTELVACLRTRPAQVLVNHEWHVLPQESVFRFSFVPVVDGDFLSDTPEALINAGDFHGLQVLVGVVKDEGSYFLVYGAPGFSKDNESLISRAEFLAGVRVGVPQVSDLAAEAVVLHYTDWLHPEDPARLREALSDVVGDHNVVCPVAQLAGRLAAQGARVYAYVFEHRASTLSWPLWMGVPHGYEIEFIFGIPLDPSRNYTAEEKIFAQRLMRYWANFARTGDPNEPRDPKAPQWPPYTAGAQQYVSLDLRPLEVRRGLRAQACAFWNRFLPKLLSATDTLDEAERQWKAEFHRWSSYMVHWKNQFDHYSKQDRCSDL
# Sequence of Melanocortin receptor 5 (P33032 whole entry): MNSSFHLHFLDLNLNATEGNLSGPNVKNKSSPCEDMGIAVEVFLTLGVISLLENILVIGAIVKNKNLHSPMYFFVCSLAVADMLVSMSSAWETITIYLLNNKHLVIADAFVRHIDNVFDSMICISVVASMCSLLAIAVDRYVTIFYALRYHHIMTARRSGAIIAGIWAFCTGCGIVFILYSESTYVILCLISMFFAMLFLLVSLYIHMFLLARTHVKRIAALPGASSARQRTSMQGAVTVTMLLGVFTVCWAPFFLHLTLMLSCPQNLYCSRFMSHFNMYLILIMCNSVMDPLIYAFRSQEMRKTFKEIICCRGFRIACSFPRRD
SMILES,IC50 (Acetylcholinesterase; hek293),IC50 [1],Ki [1],IC50 (Melanocortin receptor 5),IC50 [2],Ki [2],IC50 [3],Ki [3],IC50 [4],IC50 ([4]; read-out: IC50) [nM],IC50 ([2]; read-out: IC50) [nM],Ki ([2]; read-out: Ki) [nM],IC50 ([1]; read-out: IC50) [nM],IC50 (Acetylcholinesterase; read-out: IC50) [nM]
CC(N)C12CC3CC(CC(C3)C1)C2 (stereo unspecified) [RIMANTADINE],Not Active,Not Active,Not Active,Not Active,Not Active,Not Active,Not Active,Not Active,Not Active,,,,,
CS(=O)(=O)c1ccc(C2=C(c3ccccc3)C(=O)OC2)cc1 [ROFECOXIB],Not Active,Not Active,Not Active,Not Active,Not Active,Not Active,Not Active,Not Active,Not Active,,,,,
CCOc1cc(N)c(Cl)cc1C(=O)NCC1CN(Cc2ccc(F)cc2)CCO1 (stereo unspecified) [MOSAPRIDE],Not Active,Not Active,Not Active,Not Active,Not Active,Not Active,Not Active,Not Active,Not Active,,,,,
Cc1ccnc(NS(=O)(=O)c2ccc(N)cc2)n1 [SULFAMERAZINE],Not Active,Not Active,Not Active,Not Active,Not Active,Not Active,Not Active,Not Active,Not Active,,,,,
OC[C@@H](O)[C@@H](O)[C@H](O)[C@H](O)CO [MANNITOL],Not Active,Not Active,Not Active,Not Active,Not Active,Not Active,Not Active,Not Active,Not Active,,,,,
Oc1ccc(/C=C/c2cc(O)cc(O)c2)cc1 [RESVERATROL],Not Active,Not Active,Not Active,Not Active,Not Active,Not Active,Not Active,Not Active,Not Active,,,,,
CC1=C(/C=C/C(C)=C/C=C/C(C)=C/C(=O)O)C(C)(C)CCC1 [TRETINOIN],Not Active,Not Active,Not Active,Not Active,Not Active,Not Active,Not Active,Not Active,,576,,,,
C=CCc1ccc2c(c1)OCO2 [SAFROLE],Not Active,Not Active,Not Active,Not Active,Not Active,Not Active,Not Active,Not Active,Not Active,,,,,
CCN(CC)N=O [N-NITROSODIETHYLAMINE],Not Active,Not Active,Not Active,Not Active,Not Active,Not Active,Not Active,Not Active,Not Active,,,,,
CCN1CCCC1CNC(=O)c1cc(S(N)(=O)=O)ccc1OC (stereo unspecified) [SULPIRIDE],Not Active,Not Active,Not Active,Not Active,Not Active,Not Active,Not Active,Not Active,Not Active,,,,,
O=C1CC[C@@]2(O)[C@H]3Cc4ccc(O)c5c4[C@@]2(CCN3CC2CC2)[C@H]1O5 [NALTREXONE],Not Active,Not Active,Not Active,Not Active,Not Active,Not Active,Not Active,Not Active,Not Active,,,,,
C[N+]1(C)[C@@H]2C[C@@H](OC(=O)[C@H](CO)c3ccccc3)C[C@H]1[C@@H]1O[C@@H]12.[Br-] [METHSCOPOLAMINE BROMIDE],Not Active,Not Active,Not Active,Not Active,Not Active,Not Active,Not Active,Not Active,Not Active,,,,,
CCN(CC)CCNC(=O)c1cc(Cl)c(N)cc1OC [METOCLOPRAMIDE],Not Active,Not Active,Not Active,Not Active,,,Not Active,Not Active,Not Active,,4010,902,,
O=C(OC[C@H]1O[C@@H](OC(=O)c2cc(O)c(O)c(OC(=O)c3cc(O)c(O)c(O)c3)c2)[C@H](OC(=O)c2cc(O)c(O)c(OC(=O)c3cc(O)c(O)c(O)c3)c2)[C@@H](OC(=O)c2cc(O)c(O)c(OC(=O)c3cc(O)c(O)c(O)c3)c2)[C@@H]1OC(=O)c1cc(O)c(O)c(OC(=O)c2cc(O)c(O)c(O)c2)c1)c1cc(O)c(O)c(OC(=O)c2cc(O)c(O)c(O)c2)c1 [TANNIC ACID],Not Active,,,Not Active,Not Active,Not Active,Not Active,Not Active,,185,,,1340,
CN1C(=O)OC(C)(C)C1=O [TRIMETHADIONE],Not Active,Not Active,Not Active,Not Active,Not Active,Not Active,Not Active,Not Active,Not Active,,,,,
Cc1cn([C@H]2C=C[C@@H](CO)O2)c(=O)[nH]c1=O [STAVUDINE],Not Active,Not Active,Not Active,Not Active,Not Active,Not Active,Not Active,Not Active,Not Active,,,,,
CN1C[C@H](CNC(=O)OCc2ccccc2)C[C@@H]2c3cccc4c3c(cn4C)C[C@H]21 [METERGOLINE],,Not Active,Not Active,Not Active,Not Active,Not Active,Not Active,Not Active,Not Active,,,,,1340
CCN(CC)C(=S)SSC(=S)N(CC)CC,Not Active,Not Active,Not Active,Not Active,Not Active,Not Active,Not Active,Not Active,Not Active,,,,,
Cc1cc2c(s1)Nc1ccccc1N=C2N1CCN(C)CC1 [OLANZAPINE],Not Active,,,Not Active,,,,,Not Active,,,,,
CC(C)(C)NC[C@H](O)COc1cccc2c1CCCC2=O [LEVOBUNOLOL],Not Active,Not Active,Not Active,Not Active,Not Active,Not Active,Not Active,Not Active,Not Active,,,,,
Nc1nc(N)c2nc(-c3ccccc3)c(N)nc2n1,Not Active,Not Active,Not Active,Not Active,Not Active,Not Active,Not Active,Not Active,Not Active,,,,,
Cc1ccc(S(=O)(=O)NC(=O)NN2CCCCCC2)cc1 [TOLAZAMIDE],Not Active,Not Active,Not Active,Not Active,Not Active,Not Active,Not Active,Not Active,Not Active,,,,,
Cc1ccc(Cl)c(Nc2ccccc2C(=O)O)c1Cl [MECLOFENAMIC ACID],Not Active,Not Active,Not Active,Not Active,Not Active,Not Active,Not Active,Not Active,,3140,,,,
CN(C)CCC=C1c2ccccc2COc2ccccc21 [DOXEPIN],Not Active,,,Not Active,,,,,Not Active,,,,,
CNCCCC12CCC(c3ccccc31)c1ccccc12 [MAPROTILINE],Not Active,,,Not Active,,,,,Not Active,,,,,
